# Target: GABA B receptor (Rattus norvegicus, UniProt O88871+Q9Z0U4)
# Experiment: Inhibition of [3H]baclofen binding to rat gamma-aminobutyric acid type B receptor.
# Type: protein-complex assay
# Chain of GABA B receptor (Q9Z0U4 whole entry): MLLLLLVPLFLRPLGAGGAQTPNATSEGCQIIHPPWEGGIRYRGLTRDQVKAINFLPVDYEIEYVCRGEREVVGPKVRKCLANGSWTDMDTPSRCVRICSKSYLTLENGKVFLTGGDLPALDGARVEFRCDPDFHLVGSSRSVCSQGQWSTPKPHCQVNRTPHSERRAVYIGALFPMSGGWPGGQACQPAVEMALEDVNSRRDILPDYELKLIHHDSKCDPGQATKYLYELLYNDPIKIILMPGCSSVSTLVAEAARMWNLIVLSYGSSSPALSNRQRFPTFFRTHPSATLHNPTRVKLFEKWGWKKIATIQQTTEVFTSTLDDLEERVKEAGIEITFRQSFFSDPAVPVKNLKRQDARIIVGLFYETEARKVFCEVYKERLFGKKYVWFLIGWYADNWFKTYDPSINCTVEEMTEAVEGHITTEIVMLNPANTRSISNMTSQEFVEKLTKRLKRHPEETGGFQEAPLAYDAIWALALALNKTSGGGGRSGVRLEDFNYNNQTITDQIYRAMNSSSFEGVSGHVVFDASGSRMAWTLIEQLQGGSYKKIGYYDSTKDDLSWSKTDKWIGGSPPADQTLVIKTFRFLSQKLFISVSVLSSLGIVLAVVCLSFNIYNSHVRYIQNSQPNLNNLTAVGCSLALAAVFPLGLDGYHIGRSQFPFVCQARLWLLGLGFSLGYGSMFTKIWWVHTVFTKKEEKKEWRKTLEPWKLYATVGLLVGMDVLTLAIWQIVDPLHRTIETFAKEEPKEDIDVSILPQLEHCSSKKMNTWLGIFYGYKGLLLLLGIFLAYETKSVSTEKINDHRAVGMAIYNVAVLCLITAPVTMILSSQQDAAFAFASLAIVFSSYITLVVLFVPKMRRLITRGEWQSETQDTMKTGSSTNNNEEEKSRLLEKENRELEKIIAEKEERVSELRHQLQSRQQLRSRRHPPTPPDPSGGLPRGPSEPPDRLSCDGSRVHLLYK
# Chain of GABA B receptor (O88871 whole entry): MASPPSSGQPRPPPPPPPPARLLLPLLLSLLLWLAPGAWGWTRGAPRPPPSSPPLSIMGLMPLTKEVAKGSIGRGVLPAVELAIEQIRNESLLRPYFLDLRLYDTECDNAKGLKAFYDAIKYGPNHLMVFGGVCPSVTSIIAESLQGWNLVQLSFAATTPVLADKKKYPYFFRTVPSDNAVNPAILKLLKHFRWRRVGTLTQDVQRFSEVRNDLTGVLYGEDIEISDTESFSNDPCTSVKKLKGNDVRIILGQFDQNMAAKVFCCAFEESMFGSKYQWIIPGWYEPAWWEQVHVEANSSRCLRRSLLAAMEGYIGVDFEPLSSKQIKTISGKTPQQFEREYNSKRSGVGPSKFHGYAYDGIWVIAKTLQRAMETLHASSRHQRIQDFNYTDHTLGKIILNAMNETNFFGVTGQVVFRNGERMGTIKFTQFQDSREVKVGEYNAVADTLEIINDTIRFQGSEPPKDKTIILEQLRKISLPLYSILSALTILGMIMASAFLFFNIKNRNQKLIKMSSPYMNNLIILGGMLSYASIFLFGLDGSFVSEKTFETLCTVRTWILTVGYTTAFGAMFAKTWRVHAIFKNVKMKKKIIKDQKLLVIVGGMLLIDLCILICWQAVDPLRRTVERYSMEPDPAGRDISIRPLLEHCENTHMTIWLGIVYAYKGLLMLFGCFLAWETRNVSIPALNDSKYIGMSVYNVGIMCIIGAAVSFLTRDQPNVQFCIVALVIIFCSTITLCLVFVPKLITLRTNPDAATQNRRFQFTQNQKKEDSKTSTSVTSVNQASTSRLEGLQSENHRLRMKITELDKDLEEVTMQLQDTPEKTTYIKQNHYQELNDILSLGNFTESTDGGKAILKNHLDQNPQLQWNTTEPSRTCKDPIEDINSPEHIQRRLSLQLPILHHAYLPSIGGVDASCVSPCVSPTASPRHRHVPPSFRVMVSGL
row,Structure (SMILES),IC50 [µM]
1,NCC(CC(=O)O)c1cccc(Cl)c1 (centres undefined),20
2,NCC(CC(=O)O)c1ccccc1Cl (centres undefined),0.8
3,NCC(CC(=O)O)c1ccc(Br)s1 (centres undefined),1.86
4,NCC(CC(=O)O)c1ccco1 (centres undefined),> 100
5,NCC(CC(=O)O)c1cccs1 (centres undefined),9.72
6,NCC(CC(=O)O)c1ccsc1 (centres undefined),20.9
7,NC[C@H](CC(=O)O)c1ccc(F)cc1,1.33
8,Cc1ccc(C(CN)CC(=O)O)o1 (centres undefined),> 100
9,Cc1ccc(C(CN)CC(=O)O)s1 (centres undefined),1.34
10,NCC(CC(=O)O)c1ccc(O)cc1 (centres undefined),> 100
11,NCC(CC(=O)O)c1cc(Br)cs1 (centres undefined),39.1
12,NCC(CC(=O)O)c1cc(Cl)cs1 (centres undefined),45.3
13,NCC(CC(=O)O)c1ccc(Cl)s1 (centres undefined) [4-AMINO-3- (5-CHLOROTHIEN-2-YL)BUTANOIC ACID],0.61
14,Cc1ccsc1C(CN)CC(=O)O (centres undefined),124

# Target: GABA-A receptor; anion channel
# Experiment: Inhibition of [3H]muscimol binding to gamma-aminobutyric-acid A (GABA-A) receptor
# Type: protein-complex assay, Rattus norvegicus
row,Structure (SMILES),IC50 [µM]
1,NCC(CC(=O)O)c1ccc(Br)s1 (centres undefined),> 100
2,NCC(CC(=O)O)c1ccco1 (centres undefined),> 100
3,NCC(CC(=O)O)c1cccs1 (centres undefined),> 100
4,NCC(CC(=O)O)c1ccsc1 (centres undefined),> 100
5,Cc1ccc(C(CN)CC(=O)O)o1 (centres undefined),> 100
6,Cc1ccc(C(CN)CC(=O)O)s1 (centres undefined),> 100
7,NCC(CC(=O)O)c1cc(Br)cs1 (centres undefined),> 100
8,NCC(CC(=O)O)c1cc(Cl)cs1 (centres undefined),> 100
9,NCC(CC(=O)O)c1ccc(Cl)s1 (centres undefined) [4-AMINO-3- (5-CHLOROTHIEN-2-YL)BUTANOIC ACID],> 100
10,Cc1ccsc1C(CN)CC(=O)O (centres undefined),> 100
